Data from patent publication US10087215B2, “Stabilized SOS1 peptides” (DANA-FARBER CANCER INSTITUTE, INC., priority 2013, dated 2018).
Bridges are numbered along the chain shown (N, C = ends). Where no end group is shown, it is not given here. [ ]: non-standard residue; d: D form. The star is where a group is joined. guanine PNA monomer = guanine peptide-nucleic acid (PNA) monomer, attached to a lysine side chain, NCCN(CC(=O)*)C(=O)Cn1cnc2c(=O)[nH]c(N)nc21; G‑GMONO = glycine-G PNA monomer on lysine; S5 = C=CCCC[C@](C)(N)C(=O)O

What was measured:
KRAS and SOS1 protein = KRAS and SOS1 protein (Homo sapiens, UniProt P01116); experiment: Disruption of the association between KRAS and SOS1 protein in vitro; format: biochemical
KRAS wild type [1] = molecular target: T1, KRAS wild type (Homo sapiens, UniProt P01116); experiment: mant-GTP loading of KRAS, wild type; format: biochemical
Description: (§1) The negative control SAH-SOS B2 peptide had no effect (FIG. 11A-D).

KRAS wild type [2] = molecular target: T1, KRAS wild type; experiment: Fluorescence polarization binding assay, wild-type KRAS
Experimental: The affinity of the various peptides is detailed in FIG. 5.
Expression was induced by 1 mM IPTG for 4 hours at 30° C. Collected bacterial pellets were resuspended in lysis buffer (20 mM Tris, 250 mM NaCl, pH 7.6), lysed by microfluidization (Microfluidics M-110L), and centrifuged at 45,000 rpm for 1 h at 4° C. (Beckman L-90K). […] Concentrated eluates were subjected to size exclusion chromatography and the corresponding monomeric peaks were collected. Protein concentration was determined by Bradford assay (BioRad) and UV absorbance measurements.
FP assays were performed as previously described. Briefly, FITC-SAH-SOS peptides (e.g. 15 nM) were incubated with the indicated serial dilution of KRAS wild-type or mutant protein in binding buffer (50 mM Tris, 100 mM NaCl, pH 8.0) until equilibrium was reached. FP was measured using a SpectraMax M5 microplate reader (Molecular Devices). Dissociation constants (KD) were calculated by nonlinear regression analysis of dose-response curves using Prism software (GraphPad). Competition FP assays were performed by using K-RAS proteins (e.g. 250 nM), FITC-SAH-SOS peptides (e.g. 15 nM), and for competition assays, a serial dilution of N-terminal acetylated SAH-SOS peptides.

KRAS G12D = KRAS G12D (Homo sapiens, UniProt P01116, G12D); experiment: mant-GTP loading of KRAS, G12D; format: biochemical; details: for inhibition of mant-GTP loading: KRAS G12D oncogenic variant; for inhibition of nucleotide (mant-GTP) loading of KRAS: KRAS G12D per FIG. 20 legend
Description: as §1
Fluorescent GTP analog, mant-GTP, was used to assess the GTP loading propensity of KRAS protein.

Panc 10.05 cells = details: confocal microscopy and lysate fluorescence scan
Experimental: Microscopy was performed 4 hours after dosing cells with the corresponding FITC-conjugated peptides. Complimentary assays to evaluate cell penetrance, including confocal microscopy of treated pancreatic cancer cell lines such as Panc 10.05 (FIG. 12B) and fluorescence scan of lysates from SAH-SOS peptide-treated Panc 10.05 cells (FIG. 12C), were also employed.

[3] = system: HCT116 (colorectal cancer, KRAS G13D); experiment: Cell viability, CellTiter-Glo, HCT116; format: cell-based; details: HCT116, 24 hours
Experimental: SAH-SOSB2, which contains a staple position that interferes with the KRAS binding interface, served as a negative control for this experiment. Dose-dependent cytotoxic activity of guanine peptide-nucleic acid derivatives of SAH-SOSC2 was also observed in a series of pancreatic and lung cancer subtypes (FIG. 22).
(§2) The indicated cell lines (10^4/well) were plated overnight (96-well format) in high-glucose DMEM media supplemented with 10% FBS, antibiotics and L-Glutamine. Media was aspirated, and SAH-SOS peptides added at the indicated concentrations in serum-free DMEM. Cell viability was measured at 24 hours using the CellTiter-Glo assay (Invitrogen). The plotted data represent percent viability as normalized to untreated controls.

[4] = system: A549 (lung adenocarcinoma, KRAS G12S); experiment: Cell viability, CellTiter-Glo, A549; format: cell-based; details: A549, 24 hours
Experimental: as §2

[5] = system: HeLa (cervical cancer, WT KRAS); experiment: Cell viability, CellTiter-Glo, HeLa; format: cell-based; details: 24 hours
Experimental: as §2

[6] = system: lung, pancreatic, colon, and cervical cancer cell lines; experiment: Susceptibility of a diversity of cancer cell lines; format: cell-based
Experimental: (§3) We tested a diversity of cancer cells lines to evaluate their susceptibility to SAH-SOS peptide treatments. […] After 4 h incubation with the indicated peptides, HeLa (FIG. 15A) or Panc 10.05 (FIG. 15B) cells were treated with […] (EGF), an upstream KRAS activator, and, lysates were prepared, subjected to electrophoresis, and western blotted with the indicated phospho-specific antibodies. Cells treated with or without EGF, in the absence of added peptide, served as positive and negative controls, respectively.
as §2

[7] = system: Myc promoter luciferase reporter in HeLa cells; experiment: Myc promoter luciferase reporter assay; format: cell-based; details: EGF stimulation, normalized to cell viability
Experimental: HeLa cells transfected with a reporter construct containing luciferase under the control of the Myc promoter was treated with EGF and the indicated concentrations of SAH-SOS peptides (FIG. 16). The luciferase readout was normalized to cell viability and plotted as percent luciferase expression compared to baseline. […] No EGF treatment served as a negative control for the experiment.
HeLa cells (10^4/well) were plated overnight (96-well format) in high-glucose DMEM media supplemented with 10% FBS, antibiotics and L-Glutamine. After 24 hour incubation, cells were transfected with pBV-Luc/Del-6 plasmid that includes a luciferase reporter under c-myc promoter, using Lipofectamine 2000 (Invitrogen) according to the manufacturer's protocol. Twenty-four hours after transfection, the cells were treated with the indicated amounts of SAH-SOS peptides for 4 hours in serum-free media, and then. EGF (50 ng/ml) was added for an additional 4 hour incubation. CellTiter-Glo and luciferase (Invitrogen) kits were used to quantify cell viability and luciferase expression, respectively. Viability data was used to normalize luciferase expression.

[8] = system: mouse embryonic fibroblasts; details: 0.5 μM FITC-conjugated peptide, 4 hours
Experimental: Negative controls include DMSO and an unmodified/unstructured peptide of the BIM BH3 domain. […] Microscopy was performed 4 hours after dosing cells with the corresponding FITC-conjugated peptides.
Briefly, wild-type MEFs were treated with 0.5 μM SAH-SOS peptide or the equivalent amount of control peptides (e.g. BIM BH3, BIM SAHBA) for 4 hours in serum-free DMEM, and then stained with Hoechst dye and CellMask Orange (Invitrogen) for 10 min. The media was aspirated, and cells fixed with 4% paraformaldehyde for 10 min, washed 3× with PBS and imaged using ImageXpress Microscopy (high-throughput epifluorescence microscope, Molecular Devices). The data were analyzed and quantified with MetaXpress software.

wildtype KRAS = wildtype KRAS (Homo sapiens, UniProt P01116); experiment: Nucleotide (GTP) exchange assay with mant-GTP; format: biochemical; details: mant-GTP loaded KRAS, excess unlabeled GTP (10x)
Experimental: KRAS was loaded with equimolar mant-GTP (a fluorescent GTP analog), and excess unlabeled GTP (10×) is then added to the reaction mixture. The observed decrease in fluorescence reflects the GTP turnover activity at the KRAS active site. SAH-SOS peptides reduce the GTP turnover activity, as reflected by a shift of the curves from the no peptide negative control toward the inhibited exchange (2 mM MgCl2) positive control (FIG. 10).
Nucleotide exchange assays were performed as an association-dissociation experiment in which mant-GTP first associates with K-Ras followed by a dissociation step in which excess unlabeled GTP outcompetes mant-GTP, thus decreasing the fluorescence, as previously described^5. A kinetic readout of fluorescence, corresponding to the dissociation step, was recorded on a Tecan X1000 fluorescence spectrometer (excitation 360 nm, emission 440 nm). The rate of nucleotide exchange was determined by fitting a single exponential function to the dissociation phase readout from the experiment (Prism software, GraphPad). Reactions were performed with the indicated amounts of SAH-SOS peptides in buffer containing 25 mM Tris (pH 7.5), 50 mM NaCl, 1 mM DTT with 2 μM wildtype KRAS, 2 μM mantGTP and 200 μM unlabeled GTP. 2 mM MgCl2 was added as a […] to inhibit mantGTP release.

[9] = system: phospho-MEK1/2, phospho-ERK1/2, phospho-Akt, phospho-S6K, and phospho-myc in HeLa or Panc 10.05 cells; experiment: Phospho-western blotting of downstream KRAS targets after EGF; format: cell-based; details: 4 h peptide incubation, then Epidermal Growth Factor (EGF)
Experimental: as §3
HeLa cells (10^5/well) were plated overnight (12-well format) in high-glucose DMEM media supplemented with 10% FBS, antibiotics and L-Glutamine. After 24 hours, cells were treated with the indicated amounts of SAH-SOS peptides for 4 hours in serum-free DMEM, followed by the addition of EGF (50 ng/ml) ([…], Cell Signaling) for an additional 15 minute incubation. The cells were then lysed in buffer containing 0.5% NP-40, 50 mM Tris (pH 7.4), 150 mM NaCl, complete protease inhibitors and PhosphoOne phosphatase inhibitors (Roche), and collected lysates subjected to SDS-PAGE following by western blotting with anti-phospho-Erk1/2, phospho-S6K, phospho-myc (Cell Signaling), and actin (Sigma) antibodies.

CC[C@H](C)[C@H](NC(=O)[C@]1(C)CCCC=CCCC[C@](C)(NC(=O)CNC(=O)[C@H](Cc2ccccc2)NC(=O)[C@H](Cc2ccccc2)NC(=O)[C@H](CCCNC(=N)N)NC(=O)[C@H](CCCNC(=N)N)NC(=O)CCNC(=S)Nc2ccc3c(c2)C(=O)OC32c3ccc(O)cc3Oc3cc(O)ccc32)C(=O)N[C@@H](Cc2ccc(O)cc2)C(=O)N[C@@H](CC(C)C)C(=O)N[C@@H]([C@@H](C)O)C(=O)N1)C(=O)N[C@@H](CC(C)C)C(=O)N[C@@H](CCCCN)C(=O)N[C@H](C(=O)N[C@@H](CCC(=O)O)C(=O)N[C@@H](CCC(=O)O)C(=O)NCC(=O)N[C@@H](CC(N)=O)C(N)=O)[C@@H](C)O [SAH-SOSB2, RRFFGXYLTXILKTEEGN]
disruption of KRAS-SOS1 association (KRAS and SOS1 protein): displayed no such activity | inhibition of mant-GTP loading (KRAS wild type [1]): had no effect | binding to KRAS, in words (KRAS wild type [2]): does not bind KRAS | inhibition of mant-GTP loading (KRAS G12D): had no effect | cellular uptake (Panc 10.05 cells): dose-dependent cellular uptake was observed

CC[C@H](C)[C@H](NC(=O)CNC(=O)[C@H](Cc1ccccc1)NC(=O)[C@H](Cc1ccccc1)NC(=O)[C@H](CCCNC(=N)N)NC(=O)[C@H](CCCNC(=N)N)NC(=O)CCNC(=S)Nc1ccc2c(c1)C(=O)OC21c2ccc(O)cc2Oc2cc(O)ccc21)C(=O)N[C@@]1(C)CCCC=CCCC[C@@](C)(C(=O)N[C@@H](CC(C)C)C(=O)N[C@@H](CCCCN)C(=O)N[C@H](C(=O)N[C@@H](CCC(=O)O)C(=O)N[C@@H](CCC(=O)O)C(=O)NCC(=O)N[C@@H](CC(N)=O)C(N)=O)[C@@H](C)O)NC(=O)[C@H](CC(N)=O)NC(=O)[C@H]([C@@H](C)O)NC(=O)[C@H](CC(C)C)NC1=O [SAH-SOSC2, RRFFGIXLTNXLKTEEGN]
cell viability [3]: impairs the viability | cell viability [4]: impairs the viability | cell viability [5]: impairs the viability | disruption of KRAS-SOS1 association (KRAS and SOS1 protein): disrupted the association between KRAS and SOS1 protein | anti-tumor activity in cancer cell lines [6]: demonstrated anti-tumor activity | myc-driven luciferase expression [7]: specifically inhibited myc-driven luciferase expression | inhibition of mant-GTP loading (KRAS wild type [1]): dose-responsively inhibited mant-GTP loading | binding to KRAS, in words (KRAS wild type [2]): among the highest affinity | cellular uptake [8]: cellular uptake | inhibition of mant-GTP loading (KRAS G12D): dose-responsively inhibited mant-GTP loading | GTP exchange activity of KRAS (wildtype KRAS): reduce the GTP exchange activity of KRAS in vitro in a dose-responsive manner | phosphorylation of downstream KRAS targets [9]: dose-responsively inhibited phosphorylation | cellular uptake (Panc 10.05 cells): dose-dependent cellular uptake was observed

RRFFGIXLTNXLRTEK(G-GMONO)GN (RRFFGI[S5]LTN[S5]LRTEK(G‑GMONO)GN; staple 7-11) [SAH-SOS(G-Gmono), SAH-SOSC2 derivative with glycine-conjugated G-monomer on a lysine side chain]
inhibition of nucleotide (mant-GTP) loading of KRAS (KRAS G12D): effectively inhibited nucleotide loading

RRFFGIXLTNXLRTEKGN (RRFFGI[S5]LTN[S5]LRTEK(guanine PNA monomer)GN; staple 7-11) [SAH-SOS(Gmono), SAH-SOSC2 derivative with guanine peptide-nucleic acid monomer (Gmono) on a lysine side chain]
inhibition of nucleotide (mant-GTP) loading of KRAS (KRAS G12D): effectively inhibited nucleotide loading
